≈ marks a conversion by molar mass, not a printed value. Like-named read-outs stand apart in the source and are kept apart here.
Assays:
Format in all cases: cell-based
Botrtyis cinerea (Bc) = assay: In vitro pathogen growth inhibition assay, Bc; details: 48 h
Protocol: (§1) A growth inhibition assay was conducted to determine the ability of compounds to control the growth of fungal pathogens, such as Botrtyis cinerea (Bc), Collectotrichum graminicola (Cg), Diplodia maydis (Dm), Fusarium moniliforme (Fm), Fusarium virguliforme (Fv), Phytophthora capsici (Pc), Rhizoctonia solani (Rs), and Septoria tritici (St). The compounds listed in Table 1 were each dissolved in DMSO at 2.5 mg/ml to produce compound stock solutions (“stocks”). […] Negative controls on each plate included 2% DMSO, water, and a blank (media+2% DMSO). Fungal spores were isolated from previously sub-cultured plates of Botrtyis cinerea (Bc), Collectotrichum graminicola (Cg), Diplodia maydis (Dm), Fusarium moniliforme (Fm), Fusarium virguliforme (Fv), Phytophthora capsici (Pc), and Septoria tritici (St). The isolated spores were diluted to individual concentrations with a 17% V8 liquid media. For Rhizoctonia solani (Rs), 1.5 mm mycelial plugs were used in place of spores and ¼ Potato Dextrose Broth (PDB) was used for dilution. The spore concentrations and plug sizes were based on growth curves generated at 48 hours for each pathogen. In a second 96-well plate, the spores or mycelial plugs, media, diluted compound solutions, and controls were combined. Once the compound was added, a true final concentration of compound in each well was measured by an OD600 reading, which adjusted for any compound precipitation that might have occurred in the well. Plate readings were repeated at both 24 and 48 hours. The blank negative control was used as a background subtraction. Additional visual ratings were performed at both 24 and 48 hours for checking on precipitation and confirming efficacy. […] Both tables list the concentration of each compound that was sufficient to ≥90% inhibition of growth for each of the fungal pathogens listed above. In addition, some of compounds were tested in a yeast growth inhibition assay for Saccharomyces cerevisiae (Sc). Table 2 lists the concentration of the tested compound that was sufficient to ≥75% inhibition of Saccharomyces cerevisiae (Sc).

[1] = test system: Collectotrichum graminicola (Cg); assay: In vitro pathogen growth inhibition assay, Cg; details: 48 h
Protocol: as §1

Diplodia maydis (Dm) = assay: In vitro pathogen growth inhibition assay, Dm; details: Stenocarpella maydis, 48 h
Protocol: as §1

[2] = test system: Fusarium moniliforme (Fm); assay: In vitro pathogen growth inhibition assay, Fm; details: Fusarium verticillioides
Protocol: as §1

[3] = test system: Fusarium virguliforme (Fv); assay: In vitro pathogen growth inhibition assay, Fv
Protocol: as §1

[4] = test system: Phytophthora capsici (Pc); assay: In vitro pathogen growth inhibition assay, Pc; details: 48 h
Protocol: as §1

Rhizoctonia solani (Rs) = assay: In vitro pathogen growth inhibition assay, Rs (mycelial plugs); details: Rhizoctonia solani, 48 h
Protocol: as §1

Septoria tritici (St) = assay: In vitro pathogen growth inhibition assay, St; details: Zymoseptoria tritici, 48 h
Protocol: as §1

[5] = ≥90% inhibition, 48 hours vs 2% DMSO control, read-out: Compound Concentration (ppm) sufficient for ≥90% inhibition of growth, Bc
[6] = ≥90% inhibition, 48 hours vs 2% DMSO control, read-out: Compound Concentration (ppm) sufficient for ≥90% inhibition of growth, Cg
[7] = ≥90% inhibition, 48 hours vs 2% DMSO control, read-out: Compound Concentration (ppm) sufficient for ≥90% inhibition of growth, Dm
[8] = ≥90% inhibition, 48 hours vs 2% DMSO control, read-out: Compound Concentration (ppm) sufficient for ≥90% inhibition of growth, Fm
[9] = ≥90% inhibition, 48 hours vs 2% DMSO control, read-out: Compound Concentration (ppm) sufficient for ≥90% inhibition of growth, Fv
[10] = ≥90% inhibition, 48 hours vs 2% DMSO control, read-out: Compound Concentration (ppm) sufficient for ≥90% inhibition of growth, Pc
[11] = ≥90% inhibition, mycelial plugs, 48 hours vs 2% DMSO control, read-out: Compound Concentration (ppm) sufficient for ≥90% inhibition of growth, Rs
[12] = ≥90% inhibition, 48 hours vs 2% DMSO control, read-out: Compound Concentration (ppm) sufficient for ≥90% inhibition of growth, St
[13] = ≥90% growth inhibition, 48 hours, vs 2% DMSO control, read-out: Compound Concentration (ppm) sufficient for ≥90% inhibition of Bc
[14] = ≥90% growth inhibition, 48 hours, vs 2% DMSO control, read-out: Compound Concentration (ppm) sufficient for ≥90% inhibition of Cg
[15] = ≥90% growth inhibition, 48 hours, vs 2% DMSO control, read-out: Compound Concentration (ppm) sufficient for ≥90% inhibition of Dm
[16] = ≥90% growth inhibition, 48 hours, vs 2% DMSO control, read-out: Compound Concentration (ppm) sufficient for ≥90% inhibition of Fm
[17] = ≥90% growth inhibition, 48 hours, vs 2% DMSO control, read-out: Compound Concentration (ppm) sufficient for ≥90% inhibition of Fv
[18] = ≥90% growth inhibition, 48 hours, vs 2% DMSO control, read-out: Compound Concentration (ppm) sufficient for ≥90% inhibition of Pc
[19] = ≥90% growth inhibition, mycelial plugs, 48 hours, vs 2% DMSO control, read-out: Compound Concentration (ppm) sufficient for ≥90% inhibition of Rs
[20] = ≥90% growth inhibition, 48 hours, vs 2% DMSO control, read-out: Compound Concentration (ppm) sufficient for ≥90% inhibition of St

SMILES | IC90 (Botrtyis cinerea (Bc); [5]) | IC90 [1, 6] | IC90 (Diplodia maydis (Dm); [7]) | IC90 [2, 8] | IC90 [3, 9] | IC90 [4, 10] | IC90 (Rhizoctonia solani (Rs); [11]) | IC90 (Septoria tritici (St); [12]) | IC90 (Botrtyis cinerea (Bc); [13]) | IC90 [1, 14] | IC90 (Diplodia maydis (Dm); [15]) | IC90 [2, 16] | IC90 [3, 17] | IC90 [4, 18] | IC90 (Rhizoctonia solani (Rs); [19]) | IC90 (Septoria tritici (St); [20]) | also measured
COc1ccc(F)cc1[C@H](Cn1c(=O)n(C(C)(C)C(=O)N2CCCC2)c(=O)c2c(C)c(-n3nccn3)sc21)OCC(C)(C)O [Compound I-073] | 2 µg/mL (≈ 3.18 µM) | 0.4 µg/mL (≈ 0.636 µM) | 2 µg/mL (≈ 3.18 µM) | 0.08 µg/mL (≈ 0.127 µM) | 0.4 µg/mL (≈ 0.636 µM) | > 50 µg/mL | ≥ 0.4 µg/mL | ≥ 10 µg/mL | – | – | – | – | – | – | – | – | –
COc1ccccc1[C@H](Cn1c(=O)n(C(C)(C)C(=O)NC(C)C)c(=O)c2c(C)c(-n3nccn3)sc21)O[C@H]1CC[C@@H](O)CC1 [Compound I-265] | – | – | – | – | – | – | – | – | 0.4 µg/mL (≈ 0.64 µM) | 2 µg/mL (≈ 3.2 µM) | 2 µg/mL (≈ 3.2 µM) | 0.08 µg/mL (≈ 0.128 µM) | 0.4 µg/mL (≈ 0.64 µM) | ≥ 50 µg/mL | 0.08 µg/mL (≈ 0.128 µM) | ≥ 50 µg/mL | –
CCOC(=O)c1sc2c(c1C)c(=O)n(C(C)(C)C(=O)NC(C)C)c(=O)n2C[C@H](OCCOC)c1cc(F)ccc1OC [Compound I-177] | – | – | – | – | – | – | – | – | 2 µg/mL (≈ 3.29 µM) | 2 µg/mL (≈ 3.29 µM) | 2 µg/mL (≈ 3.29 µM) | 0.08 µg/mL (≈ 0.132 µM) | 0.4 µg/mL (≈ 0.658 µM) | > 50 µg/mL | 10 µg/mL (≈ 16.5 µM) | > 50 µg/mL | –
COc1ccc(F)cc1[C@H](Cn1c(=O)n(C(C)C(=O)N2CCCC2)c(=O)c2c(C)c(-n3cccn3)sc21)OC(C)C (stereo partly drawn) [Compound I-062] | 0.4 µg/mL (≈ 0.685 µM) | 0.4 µg/mL (≈ 0.685 µM) | 1.2 µg/mL (≈ 2.06 µM) | 0.08 µg/mL (≈ 0.137 µM) | 0.4 µg/mL (≈ 0.685 µM) | 50 µg/mL (≈ 85.7 µM) | 2 µg/mL (≈ 3.43 µM) | 50 µg/mL (≈ 85.7 µM) | – | – | – | – | – | – | – | – | –
COc1ccc(F)cc1[C@H](Cn1c(=O)n(C(C)(C)C(=O)NC(C)C)c(=O)c2c(C)c(-n3cccn3)sc21)OC1CCOCC1 [Compound I-115] | 2 µg/mL (≈ 3.19 µM) | ≥ 2 µg/mL | ≥ 2 µg/mL | 0.4 µg/mL (≈ 0.637 µM) | 2 µg/mL (≈ 3.19 µM) | > 50 µg/mL | 10 µg/mL (≈ 15.9 µM) | ≥ 50 µg/mL | – | – | – | – | – | – | – | – | –
COc1ccc(F)cc1[C@H](Cn1c(=O)n(C(C)(C)C(=O)N2CCCC2)c(=O)c2c(C)c(-n3nccn3)sc21)OC1CCC(=O)CC1 [Compound I-051] | 0.4 µg/mL (≈ 0.613 µM) | 0.4 µg/mL (≈ 0.613 µM) | ≥ 0.4 µg/mL | 0.08 µg/mL (≈ 0.123 µM) | 0.4 µg/mL (≈ 0.613 µM) | > 50 µg/mL | 0.4 µg/mL (≈ 0.613 µM) | > 50 µg/mL | – | – | – | – | – | – | – | – | –
Cc1c(-n2nccn2)sc2c1c(=O)n(C(C)(C)C(=O)NC(C)C)c(=O)n2C[C@H](OC(C)C)c1cc(F)ccc1OCC#N [Compound I-070] | 0.4 µg/mL (≈ 0.654 µM) | 2 µg/mL (≈ 3.27 µM) | 0.4 µg/mL (≈ 0.654 µM) | 0.08 µg/mL (≈ 0.131 µM) | 0.08 µg/mL (≈ 0.131 µM) | > 50 µg/mL | 2 µg/mL (≈ 3.27 µM) | ≥ 10 µg/mL | – | – | – | – | – | – | – | – | –
CCOC(=O)c1sc2c(c1C)c(=O)n(C(C)(C)C(=O)N1CCCC1)c(=O)n2C[C@H](OCCOC)c1cc(F)ccc1OC [Compound I-179] | – | – | – | – | – | – | – | – | 2 µg/mL (≈ 3.23 µM) | ≥ 2 µg/mL | 10 µg/mL (≈ 16.1 µM) | 0.4 µg/mL (≈ 0.645 µM) | > 2 µg/mL | > 50 µg/mL | 10 µg/mL (≈ 16.1 µM) | > 50 µg/mL | –
CCNC(=O)C(C)(C)n1c(=O)c2c(C)c(-n3nccn3)sc2n(C[C@@H](OC(C)=O)c2cc(F)ccc2OC)c1=O [Compound I-318] | – | – | – | – | – | – | – | – | – | – | – | – | – | – | – | – | IC90 (Botrtyis cinerea (Bc); concentration sufficient to ≥90% inhibition of growth, 48 hours vs 2% DMSO control, read-out: Compound Concentration (ppm) for ≥90% inhibition, Bc): 50 µg/mL (≈ 87.3 µM); IC90 ([1]; concentration sufficient to ≥90% inhibition of growth, 48 hours vs 2% DMSO control, read-out: Compound Concentration (ppm) for ≥90% inhibition, Cg): > 50 µg/mL; IC90 (Diplodia maydis (Dm); concentration sufficient to ≥90% inhibition of growth, 48 hours vs 2% DMSO control, read-out: Compound Concentration (ppm) for ≥90% inhibition, Dm): > 50 µg/mL; IC90 ([2]; concentration sufficient to ≥90% inhibition of growth, 48 hours vs 2% DMSO control, read-out: Compound Concentration (ppm) for ≥90% inhibition, Fm): 10 µg/mL (≈ 17.5 µM); IC90 ([3]; concentration sufficient to ≥90% inhibition of growth, 48 hours vs 2% DMSO control, read-out: Compound Concentration (ppm) for ≥90% inhibition, Fv): > 50 µg/mL; IC90 ([4]; concentration sufficient to ≥90% inhibition of growth, 48 hours vs 2% DMSO control, read-out: Compound Concentration (ppm) for ≥90% inhibition, Pc): > 50 µg/mL; IC90 (Rhizoctonia solani (Rs); concentration sufficient to ≥90% inhibition of growth, 48 hours vs 2% DMSO control, read-out: Compound Concentration (ppm) for ≥90% inhibition, Rs): > 50 µg/mL; IC90 (Septoria tritici (St); concentration sufficient to ≥90% inhibition of growth, 48 hours vs 2% DMSO control, read-out: Compound Concentration (ppm) for ≥90% inhibition, St): > 50 µg/mL

From US10941157B2, “Pesticidal compositions and uses thereof” (Gilead Apollo, LLC, priority 2015, dated 2021)
